Broadly, the EC50 is the midpoint of the concentration-response curve. As usually defined, the CC50 is the concentration giving 50% cytotoxicity.

Results on four compounds are retold here after publication PMC7221892, “In Vitro and in Vivo Activity of mTOR Kinase and PI3K Inhibitors Against Leishmania donovani and Trypanosoma brucei” (Molecules, 2020).

Values joined by “and” are separate entries in the source; they are usually repeats but may differ in a detail not shown here. Identical values can stand only once.

The test system of series [1] is intracellular L. donovani. Nature of the series: Intracellular L. donovani in THP-1 cells, dose-dilution high-content imaging assay. It is filed as cell-based. The settings on record: for EC50: Leishmania donovani, THP-1 cells infected with L. donovani, 72 h, duplicate measurements, read-out: Intracellular L. donovani EC50 ± SD; for Selectivity Index (SI): SI = THP-1 CC50/Intracellular L. donovani EC50. Here is the method:
(§1) PMA-treated THP-1 human monocytic cells were seeded at 0.8 × 10^4 cells per well in a 384-well culture plate (Greiner Bio-One, Kremsmünster, Austria) in RPMI-1640 complete medium supplemented with 10% FBS. After 48 h of incubation at 37 °C in the presence of 5% CO2, the promastigotes of L. donovani that were incubated with lectin for 30 min at 28 °C were added to the cells at a parasite to cell ratio of 20:1. […] The negative control consisted of THP-1 infected with the parasite with only 0.5% DMSO. After 72 h, the cells that were infected and treated with the drug were washed with serum-free RPMI-1640 medium. The cells and parasites were stained using 5 μM DRAQ5 and 4% PFA. The images were acquired based on reading using an Operetta® automated microscope (PerkinElmer, Inc., Waltham, MA 02451 USA). They were further analyzed using Columbus^TM (PerkinElmer, Inc. Waltham, MA, USA) software to quantify parasite numbers, host cell numbers, and infection ratios. In brief, large-sized nucleus of host cells was first detected using Draq-5 (Thermo Fisher, Rockford, IL, USA) signal and the host cell boundary masking was performed using the low-intensity signals from cytosols (additional feature of Draq-5). Then the small-sized nucleus signal by Draq-5 was used to identify parasites within the area of masked host cell. Infection ratio (IR) was determined with the value of the number of infected cells divided by total number of cells and the average number of parasites per macrophage (P/φ) was defined by the value of the number of parasites divided by the number of infected cells in the acquired image.
(§2) All of the half maximal effective concentrations (EC50) and the half maximal cytotoxic concentrations (CC50) values were calculated using two independent experiments. The dose-response curves were fitted using GraphPad Prism 6 software (GraphPad Software, San Diego, CA, USA) by using a sigmoidal dose-response equation with a variable hill slope option.

Series [2] in a line: Host cell cytotoxicity (CC50) in infected THP-1 cells, dose-dilution assay. It is filed as cell-based. The settings on record: human, infected THP-1 host cells, read-out: THP-1 Cell CC50 ± SD. The method, then:
as §1, §2

Series [3] relates to L. donovani promastigotes. Nature of the series: L. donovani promastigote growth inhibition (resazurin). Format: cell-based. The settings on record: Leishmania donovani, 72 h, 3 days exposure, read-out: L. donovani Promastigote EC50 ± SD. The method, then:
(§3) L. donovani promastigote and T. b. brucei Lister 427 BSF growth inhibition were assayed by measuring the conversion of resazurin to resorufin. The assays were performed in 384-well plates that were seeded with L. donovani promastigotes or T. brucei 427 BSF (5 × 10^4 cells per well). After seeding, the parasites were exposed to the compounds for 3 days. Resazurin sodium salt (200 μM; R7017; Sigma-Aldrich, St. Louis, MO, USA) was then added, and the samples were incubated for 5 h. After incubation, the parasites were fixed using 4% paraformaldehyde, and the plates were analyzed using a Victor3^TM plate reader (PerkinElmer, Inc., Waltham, MA, USA) at 590 nm (emission) and 530 nm (excitation). […] Pentamidine was used for the T. b. brucei Lister 427 BSF growth inhibition assay.
as §2

Series [4] concerns T. b. brucei Lister 427 BSF. Nature of the series: T. b. brucei Lister 427 bloodstream form growth inhibition (resazurin). Format: cell-based. The settings on record: Trypanosoma brucei, 72 h, 3 days exposure, read-out: T. brucei Lister 427 BSF EC50 ± SD. Here is the method: as §3, §2
Series [5] deals with L. donovani. The series is described as follows: VL mouse model (L. donovani-infected BALB/c mice). The conditions noted are these: miltefosine 30, Torin2 15, dactolisib 50, NVP-BGT226 5 mg/kg; for Inhibition of L. donovani In Vivo (%) (Mean ± SD): liver parasite burden vs vehicle, per os 5 days; for LDU in the Liver (Mean ± SD): once daily per os for 5 days from day 7 post-infection. Format: in vivo. Here is the method:
The highest dose for each compound without showing adverse effects was selected based on literature search. The vehicle for the compounds was 5% N-methylpyrrolidone, 15% polyvinylpyrrolidone, and 80% deionized water. Drug dosing solutions were freshly prepared each day. All drugs were administered once daily for 5 days via the per os route. On day 16 post-infection, all animals were humanely euthanized and assessed microscopically using Giemsa-stained liver imprints. Parasite burdens were measured by counting (blinded to treatment) the number of amastigotes per 1000 cell nuclei and multiplying this number by the liver weight (mg) (Leishman-Donovan Unit: LDU). The LDU values for the drug-treated samples were compared to those of the untreated samples, and the percent inhibition values were calculated.

The test system of series [6] is intracellular L. donovani. The series is described as follows: Pilot high-content screening against intracellular L. donovani at 10 μM. Format: cell-based. The settings on record: screening concentration 10 µM. Here is the method:
as §1, with “image. The average IR value of the negative control wells was calculated as 0.53. Compounds selected based on the screening results were further assessed in a dose-dilution manner (two-fold serial dilution for 20 points starting from 100 μM) using the same method.” for “image.”

Series [7] relates to THP-1 cells. The series is described as follows: Host cell viability in pilot screening at 10 μM. It is filed as cell-based, human. The conditions noted are these: screening concentration 10 µM. The method, then:
as §1, with “[…] The average IR” for “Infection ratio (IR) was determined with the”, “negative control wells” for “number of infected cells divided by total number of cells and the average number of parasites per macrophage (P/φ)”, “calculated as 0.53. […]” for “defined by the value of the number of parasites divided by the number of infected cells in the acquired image.”

Series [8] relates to T. b. brucei Lister 427. Nature of the series: HAT mouse model (acute T. b. brucei Lister 427 infection of BALB/c mice). It is filed as in vivo. The settings on record: for parasitemia in T. brucei-infected mice: five consecutive days of treatment, Torin2 15 mg/kg, NVP-BGT226 5 mg/kg. Here is the method: BALB/c mice were infected with T. b. brucei Lister 427 (4 × 10^4 cells) by intraperitoneal (i.p.) injection. […] Parasitemia was evaluated daily for 2 weeks by blood collection from the mouse tail vein, and survival was monitored for 1 month. Mice showing impaired health status and/or with a parasite load > 10^8 cells per mL of blood were euthanized.

Series [9] can be described thus: Pilot toxicity study in mice. It is filed as in vivo. The settings on record: 5 mg/kg dose.
Experimental: For this proof of concept in vivo study, L. donovani infected BALB/c model was used to evaluate the ability of compound to reduce parasites in liver. […] Using the same dosing scheme, the efficacies of the compounds were evaluated in VL mouse model.

`Cn1c(=O)n(-c2ccc(C(C)(C)C#N)cc2)c2c3cc(-c4cnc5ccccc5c4)ccc3ncc21` [Dactolisib (NVP-BEZ235)]: the EC50 in [1] is 360 ± 70 nM; in [3], 380 ± 60 nM; in series [4] it was 120 ± 10 nM. The “Selectivity Index (SI)” value in [1] was not below 277.8. Besides, the half-maximal cytotoxic concentration (CC50) at 72 h in [2] was more than 100000 nM. Besides, the “Inhibition of L. donovani In Vivo (%) (Mean ± SD)” value (“Inhibition … (%) (Mean ± SD)” for short) in series [5] amounted to 53 ± 9.50%; in series [5] (listed as dactolisib) it was 53%. The “LDU in the Liver (Mean ± SD)” value in [5] amounted to 527 ± 108 LDU. The “inhibition of intracellular parasite survival in screening” value in [6] is “found active”.

With `COc1ncc(-c2ccc3nccc(-c4ccnnc4)c3c2)cc1NS(=O)(=O)c1ccc(F)cc1F` [GSK2126458], in series [6], the “inhibition of intracellular parasite survival in screening” value is listed as “found active”. Moreover, in [7], the “toxicity against the host cell in screening” value was “some toxicity against the host cell”.

For `COc1ccc(-c2ccc3ncc4c(c3c2)n(-c2ccc(N3CCNCC3)c(C(F)(F)F)c2)c(=O)n4C)cn1` [NVP-BGT226], in series [1], the EC50 came out at 140 ± 20 nM and the “Selectivity Index (SI)” value was 19. Moreover, the CC50 at 72 h in series [2] came out at 2660 ± 460 nM. Also, the EC50 in series [3] was determined as 9 ± 1 nM. Besides, in series [4], the EC50 is 0.054 ± 0.003 nM. The “Inhibition … (%) (Mean ± SD)” value in series [5] (5 mg/kg) was 54% and 54 ± 3.18%. Besides, the “LDU in the Liver (Mean ± SD)” value in series [5] stood at 516 ± 36 LDU. For the same compound, in [8] (5 mg/kg per os for 5 days), the “mice surviving during 14 days post-infection” value came out at 80% and the “mice surviving more than 25 days without parasitemia” value was found to be 20%. In series [8] (NVP-BGT226 5 mg/kg vs Torin2 15 mg/kg), the “delay in survival over the Torin2-treated group” value is 1 to 2 days. Moreover, in series [8], the “parasitemia in T. brucei-infected mice” value is given as “reduced to under the limits of detection”. In addition, in series [9], the toxicity in vivo result was “no sign of toxicity was observed”.

Regarding `Nc1ccc(-c2ccc3ncc4ccc(=O)n(-c5cccc(C(F)(F)F)c5)c4c3c2)cn1` [Torin2, 9-(6-Aminopyridin-3-yl)-1-(3-(trifluoromethyl)phenyl)benzo[h][1,6]naphthyridin-2(1H)-one], the EC50 in series [1] was 250 ± 30 nM; in [3], 30 ± 4 nM; in series [4], 110 ± 10 nM. Moreover, the “Inhibition … (%) (Mean ± SD)” value in [5] was 35% and 35 ± 5.81%. Further, the “LDU in the Liver (Mean ± SD)” value in series [5] is listed as 735 ± 66 LDU. Moreover, in series [8] (15 mg/kg per os for 5 days), the “mice surviving at least 13 days after infection” value was determined as 80%. Besides, the “parasitemia in T. brucei-infected mice” value in series [8] is reported as “parasitemia was observed still by day 5”.
